Results: patent US4250255A, “Assay method for isoenzyme activity” (Eastman Kodak Company, priority 1977, dated 1981)
pIC50: −log10 of the molar value.

What was measured:
LD1 and LD5 = experiment: Screening of amphiphiles for ability to discriminate between LD1 and LD5; details: range of amphiphile concentrations; relative activity vs buffer
Experimental: A series of solutions was prepared covering a range of concentrations for each amphiphile to be tested. The activities of both LD1 and LD5 were determined in the presence of the various concentrations of each amphiphile and compared with enzyme activities in buffer (relative activity).
Enzyme activity in the presence and absence of amphiphile was measured by the following procedure: Stock solutions of NADH (4 mM) and pyruvate (40 mM) were prepared daily in 30 mM sodium phosphate buffer, pH 7.4. Enzyme solutions were prepared daily by withdrawing 5 μl of the stock enzyme solutions with a Hamilton syringe and diluting to 5 ml with 30 mM sodium phosphate buffer. (The resulting solution contains approximately 5 U of enzyme/ml.) The enzyme assay was run by pipetting 2.7 ml of buffer or buffer surfactant solution into a 10 mm path length quartz cuvette, and 100 μl each of NADH and pyruvate stock solutions were added. […] Enzyme solution was added with good mixing; the absorbance decrease at 340 nm was measured as a function of time. The rate of the reaction was determined by measuring the slope of the initial absorbance decrease, i.e., within the first 50 seconds of the reaction.

LD1 [1] = target: LD1 (Sus scrofa, UniProt P00336); experiment: Effect of cationic amphiphiles on the activity of LDH isoenzymes (Table 1); format: biochemical; details: 30 mM sodium phosphate buffer pH 7.4, 25° C.; read-out: Amphiphile conc. Req'd for 50% Inactivation of Specified Isoenzyme (LD1)
Experimental: (§1) The assay for LDH activity in both the absence and presence of surfactant was conducted as follows. […] The resulting solution contains approximately 5 units/ml. […] To the equilibrated solution […]. of the enzyme solution was added, and the cuvette was rapidly shaken while covering the top of the cuvette with a small piece of Parafilm® and placed back into the spectrophotometer.
(§2) Amphiphile solutions were prepared by weighing out a given amount of amphiphile, e.g., 100 mg, and preparing a stock solution in 30 mM sodium phosphate buffer in 100 ml. volumetric flask. Solutions of lower amphiphile concentration were prepared by making the appropriate dilutions from the stock solution.
A number of cationic amphiphiles were investigated for specific inactivation of LD1 in the presence of LD5 and these compounds are listed in Table 1.

[2] = target: T1, LDH isoenzymes (LD5 in the presence of LD1) (Oryctolagus cuniculus, UniProt P13491); experiment: Anionic amphiphiles tested for specific interaction with LDH isoenzymes (Table 2); format: biochemical
T1 construct: LD1 (LDHB tetramer) only as comparison
Experimental: as §1, §2
A number of anionic amphiphiles were investigated for specific inactivation of LD5 in the presence of LD1 and these compounds are listed in Table 2.

LD1 [3] = experiment: LDH activity assay with amphiphile, LDH isoenzymes; format: biochemical, porcine; details: FIG. 12
Experimental: 3. Beef heart LDH (Sigma Chemical Co., Type III), rabbit muscle LDH (Sigma Chemical Co., Type V) and porcine LDH, LD1, LD2, LD3, LD4 and LD5 in the form of ammonium sulfate suspensions were used for these examples.
as §1, §2

LD1 (Sus scrofa, UniProt P00336), sequence (P00336 whole entry): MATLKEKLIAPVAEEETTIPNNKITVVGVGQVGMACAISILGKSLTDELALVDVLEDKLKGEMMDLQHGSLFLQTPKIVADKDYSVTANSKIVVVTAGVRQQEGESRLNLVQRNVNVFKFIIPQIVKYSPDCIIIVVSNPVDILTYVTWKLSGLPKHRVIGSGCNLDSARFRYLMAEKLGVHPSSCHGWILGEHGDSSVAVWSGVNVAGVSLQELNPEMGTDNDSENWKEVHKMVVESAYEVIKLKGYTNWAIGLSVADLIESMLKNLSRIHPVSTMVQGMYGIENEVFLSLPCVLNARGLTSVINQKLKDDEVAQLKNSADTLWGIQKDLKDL

Compound	Effectiveness (LDH isoenzyme inhibition specificity, LD1 vs LD5) (LD1 and LD5)	other results
CCCCCCCCCCCC(=O)[O-].[Na+] [Sodium dodecanoate]	0	–
CCCCCCCCOS(=O)(=O)[O-].[Na+] [Sodium octyl sulfate]	+	–
CCCCCCCCCCCCCCCCCC(=O)[O-].[Na+] [Sodium stearate]	0	–
CCCCCCCCCCCCCCOS(=O)(=O)[O-].[Na+] [Sodium tetradecylsulfate]	++	–
CCCCCCCC[N+](CCC)(CCCCCCCC)CCCCCCCC.[Br-] [Trioctylpropylammonium bromide]	0	pIC50 (LD1 [1]): 2.80
C[C@H](CCC(=O)O)[C@H]1CC[C@H]2[C@@H]3C(=O)C[C@@H]4CC(=O)CC[C@]4(C)[C@H]3CC(=O)[C@]12C [dehydrocholic acid]	–	Interaction (specific inactivation of LD5 in the presence of LD1) [2]: no effect
CCCCCCCCCCCC(=O)O [lauric acid]	–	Interaction (specific inactivation of LD5 in the presence of LD1) [2]: no effect
CCCCCCCCCCCCCCCCCC(=O)[O-].[Li+] [lithium stearate]	–	Interaction (specific inactivation of LD5 in the presence of LD1) [2]: no effect
Heparin	+	inactivation of LD1 compared with LD5 (LD1 [3]): LD1 is more inactivated than LD5
Sodium isopropylnaphthalene sulfonate	+	–
Sodium n-decyldiphenylether disulfonate	++	–
octylphenolpoly(1-oxapropene)oxaethane carboxylic acid sodium salt	0	–
